The target in assay [1] is T1, PPARγ (Homo sapiens, UniProt P37231).
T1 construct: gene PPARG
T1 sequence (P37231 1-505): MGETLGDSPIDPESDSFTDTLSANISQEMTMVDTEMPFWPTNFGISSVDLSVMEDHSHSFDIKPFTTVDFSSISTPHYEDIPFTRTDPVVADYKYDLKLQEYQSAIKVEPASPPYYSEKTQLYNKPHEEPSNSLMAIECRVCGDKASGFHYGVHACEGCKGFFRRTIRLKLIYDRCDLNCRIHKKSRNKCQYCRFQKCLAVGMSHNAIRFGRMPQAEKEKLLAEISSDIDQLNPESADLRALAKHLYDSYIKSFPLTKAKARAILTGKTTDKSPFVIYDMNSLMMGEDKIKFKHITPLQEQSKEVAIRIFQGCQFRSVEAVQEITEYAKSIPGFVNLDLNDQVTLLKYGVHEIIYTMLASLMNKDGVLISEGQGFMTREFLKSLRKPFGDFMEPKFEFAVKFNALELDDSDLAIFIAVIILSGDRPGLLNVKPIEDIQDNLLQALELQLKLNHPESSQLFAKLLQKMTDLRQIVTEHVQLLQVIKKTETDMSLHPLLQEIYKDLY
Nature of the assay: competitive TR-FRET binding assay (Lanthascreen). (In general: In TR-FRET formats the signal depends on donor and acceptor labels being close together.)

Assay [2] deals with T2, CDK5 (CDK5/p25) (Homo sapiens, UniProt Q00535).
T2 construct: with p25
T2 sequence (Q00535 whole entry): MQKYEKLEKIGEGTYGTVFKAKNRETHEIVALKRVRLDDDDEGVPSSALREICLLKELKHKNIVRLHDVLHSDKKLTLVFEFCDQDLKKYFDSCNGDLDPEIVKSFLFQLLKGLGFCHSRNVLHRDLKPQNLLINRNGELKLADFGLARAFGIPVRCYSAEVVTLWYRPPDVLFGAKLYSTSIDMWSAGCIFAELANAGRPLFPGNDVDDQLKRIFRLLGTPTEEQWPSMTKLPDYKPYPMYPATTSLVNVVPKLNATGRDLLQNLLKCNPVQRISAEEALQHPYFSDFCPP
T2 sequence (Q15078 2-307 partner): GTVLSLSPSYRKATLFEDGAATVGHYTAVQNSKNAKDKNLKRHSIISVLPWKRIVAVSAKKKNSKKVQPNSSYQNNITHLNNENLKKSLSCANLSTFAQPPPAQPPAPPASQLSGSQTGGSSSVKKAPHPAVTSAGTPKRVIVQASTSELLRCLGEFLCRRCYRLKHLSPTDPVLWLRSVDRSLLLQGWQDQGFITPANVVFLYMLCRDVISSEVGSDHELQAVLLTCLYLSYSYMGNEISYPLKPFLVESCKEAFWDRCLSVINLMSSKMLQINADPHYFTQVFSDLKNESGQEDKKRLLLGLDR
Nature of the assay: in vitro kinase inhibition assay. The format is biochemical.

Assay [3] deals with T3, peroxisome proliferator-activated receptor γ (PPARγ) (Homo sapiens, UniProt P37231).
T3 construct: gene PPARG
T3 sequence (P37231 223-505): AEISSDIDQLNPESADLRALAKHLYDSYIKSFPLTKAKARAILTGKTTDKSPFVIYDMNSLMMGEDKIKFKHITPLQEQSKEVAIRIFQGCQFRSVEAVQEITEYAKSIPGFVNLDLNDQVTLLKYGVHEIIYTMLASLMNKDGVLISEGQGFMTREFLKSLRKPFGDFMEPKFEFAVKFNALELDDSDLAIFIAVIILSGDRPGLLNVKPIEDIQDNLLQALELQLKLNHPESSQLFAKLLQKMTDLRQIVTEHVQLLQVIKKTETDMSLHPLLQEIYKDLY
Nature of the assay: ([…] Å); competitive TR-FRET binding assay.

Each structure is given as a SMILES string.

One may read the Ki as the dissociation constant of the complex between target and ligand, obtained from inhibition or displacement. As usually defined, the IC50 is the midpoint of a concentration-inhibition curve. A lower IC50 goes with higher potency.

The compound `COc1ccc(Cl)cc1C(=O)NCCc1ccc(S(=O)(=O)NC(=O)NC2CCCCC2)cc1` [glibenclamide] gave an inhibition constant (Ki) in assay [1] of 1180 nM.

Turning to `COC(=O)[C@]1(Cc2ccc(O)c(CC=C(C)C)c2)OC(=O)C(O)=C1c1ccc(O)cc1` [butyrolactone I], the IC50 in assay [2] was 170 nM. This compound also had a Ki in assay [3] of 2640 nM.

Source of the values: PMC7072624 (Biomolecules, 2020).
